Results as given in US8532742B2, “System and method for simultaneous 3DPR device tracking and imaging under MR-guidance for therapeutic endovascular interventions” (Wisconsin Alumni Research Foundation, priority 2006, dated 2013).

Assays:
[1] = Diffusion of a fluorescent probe in swollen gelatin gel by FRAP; format: physicochemical; conditions: coating thickness 60 μm, diffusion coefficient 9×10-12 m2s-1
From the text: To assess the stability of DTPA[Gd(III)] in the gelatin coating, the diffusion of a fluorescence probe in gelatin was studied by the technique of fluorescence recovery after photobleaching (FRAP). The instrument and data analysis scheme are described in Kim, S. H. and Yu, H., J. Phys. Chem. 1992, 96, 4034, which is hereby fully incorporated by reference. Fluorescein was used as the fluorescence probe due, in part, to its molecular size being roughly the same as that of DTPA[Gd(III)]. The focus of the study was to examine the possible retardation effects of gelatin concentration and cross-link density on the diffusion, which was determined at room temperature, i.e., below the gel point of gelatin. The diffusion of fluorescein probe slows down with the increase of gelatin concentration. The diffusion coefficient decreases from 1.5×10-10 to 9×10-12 […]-1 when the concentration of gelatin increases from 9% to 40%. […] Accordingly, the probe diffusion is more likely controlled by the concentration of gelatin rather than the cross-link density. On the other hand, the cross-link density may determine the swelling ratio of gelatin, i.e., the concentration of gelatin in aqueous solution. […]

[2] = MR visibility test of gelatin/DTPA[Gd(III)] coating on PE rod in saline and yogurt (Example 14); conditions: soaked in water for 12 hours before MRI test
Method: Samples having the above formulations were transferred to a glass tube and kept in a water bath at 35° C. A bare PE rod (5 cm in length) was then dipped into the solution, and then removed. The rod was then cooled to room temperature to allow chill-setting of the gelatin solution and to form the coating on the rod surface. The same procedure was repeated to overcoat additional layers of gel. The final dry thickness of gel-coating was about 60 μm.
The gelatin coatings were dried in air while being chemically cross-linked by BVSM. The dried and cross-linked samples were then soaked in distilled water for 12 hours. Soaking each sample in distilled water may remove the DTPA[Gd(III)] that was not physically or chemically constrained by the cross-linked network of gelatin overcoat. Because the DTPA[Gd(III)] complexes were not chemically linked to the gelatin chains, most of them would be expected to diffuse out of the coating when soaked in water, whereas some of DTPA[Gd(III)] may be confined by the crystal domains in gelatin or by hydrogen bonding between gelatin chains and DTPA. In any event, after the soaking, the gelatin coating was dried again in air before MRI test.
The MR visibility of the samples prepared as outlined above, was tested in two media: saline and yogurt. […]

Structure (SMILES)	time to diffuse out of the gelatin coating [1]	retention of complex in gelatin gel after soaking [2]
O=C(O)CN(CCN(CC(=O)O)CC(=O)O)CCN(CC(=O)O)CC(=O)O [DTPA, diethylenetriaminepentaacetic acid]	about 67 seconds	
O=C([O-])CN(CCN(CC(=O)[O-])CC(=O)O)CCN(CC(=O)[O-])CC(=O)O.[Gd+3] [DTPA[Gd(III)], gadolinium-diethylene triamine pentaacetic acid]		some fraction of DTPA[Gd(III)] remained in the gel
